PubChem BioAssay AID342 (DTP/NCI, 2004)
“And” between values parts separate entries of the source, which are not always exact repeats. Identical values can stand only once.

Tested on: Swiss mice, Sarcoma 180 sc, mean tumor weight T/C
Experiment: NCI In Vivo Anticancer Drug Screen. Data for tumor model Sarcoma 180 (subcutaneous) in Swiss mice
Details: endpoint: mean tumor weight, higher = larger tumour
Procedure: The antitumor activity of compounds was measured in mice bearing transplantable tumors. Survival or tumor size were measured and the results are expressed as the measurement made in the treated group (T) divided by the measurement made in the vehicle treated control group (C). The tumor model used in this assay is Sarcoma 180 (subcutaneous) in Swiss mice

[1] = dose: 25.0 mg/kg/injection, schedule: Q#A X014 (ip), vehicle: carboxymethylcellulose (CMC)

C[C@@H]1C[C@H]2CC[C@H](O2)[C@H](C)C(=O)O[C@@H](C)C[C@@H]2CC[C@@H](O2)[C@@H](C)C(=O)O[C@H](C)C[C@H]2CC[C@H](O2)[C@H](C)C(=O)O[C@@H](C)C[C@@H]2CC[C@@H](O2)[C@@H](C)C(=O)O1
T/C (dose: 1.25 mg/kg/injection, schedule: Q#A X014 (ip), vehicle: olive oil, sesame oil, peanut oil): 96 % of control
T/C (dose: 2.5 mg/kg/injection, schedule: Q#A X014 (ip), vehicle: olive oil, sesame oil, peanut oil): 88 % of control
T/C (dose: 5.0 mg/kg/injection, schedule: Q#A X014 (ip), vehicle: olive oil, sesame oil, peanut oil): 90 % of control
T/C (dose: 5.0 mg/kg/injection, schedule: Q#A X014 (sc), vehicle: olive oil, sesame oil, peanut oil): 82 % of control
T/C (dose: 9.0 mg/kg/injection, schedule: Q#A X014 (ip), vehicle: carboxymethylcellulose (CMC)): 89 % of control
T/C (dose: 10.0 mg/kg/injection, schedule: Q#A X014 (ip), vehicle: olive oil, sesame oil, peanut oil): 73 % of control and 83 % of control
T/C (dose: 10.0 mg/kg/injection, schedule: Q#A X014 (sc), vehicle: olive oil, sesame oil, peanut oil): 81 % of control
T/C (dose: 15.0 mg/kg/injection, schedule: Q#A X014 (sc), vehicle: olive oil, sesame oil, peanut oil): 80 % of control
T/C (dose: 18.0 mg/kg/injection, schedule: Q#A X014 (ip), vehicle: carboxymethylcellulose (CMC)): 111 % of control
T/C (dose: 20.0 mg/kg/injection, schedule: Q#A X014 (ip), vehicle: carboxymethylcellulose (CMC)): 57 % of control
T/C [1]: 53 % of control
T/C (dose: 25.0 mg/kg/injection, schedule: Q#A X014 (oral), vehicle: methylcellulose (MC)): 77 % of control
T/C (dose: 30.0 mg/kg/injection, schedule: Q#A X014 (ip), vehicle: carboxymethylcellulose (CMC)): 89 % of control
T/C (dose: 30.0 mg/kg/injection, schedule: Q#A X014 (sc), vehicle: olive oil, sesame oil, peanut oil): 50 % of control
T/C (dose: 35.0 mg/kg/injection, schedule: Q#A X014 (ip), vehicle: carboxymethylcellulose (CMC)): 60 % of control
T/C (dose: 35.0 mg/kg/injection, schedule: Q#A X014 (sc), vehicle: olive oil, sesame oil, peanut oil): 26 % of control
T/C (dose: 40.0 mg/kg/injection, schedule: Q#A X014 (ip), vehicle: carboxymethylcellulose (CMC)): 64 % of control
T/C (dose: 40.0 mg/kg/injection, schedule: Q#A X014 (sc), vehicle: olive oil, sesame oil, peanut oil): 32 % of control
T/C (dose: 50.0 mg/kg/injection, schedule: Q#A X014 (oral), vehicle: methylcellulose (MC)): 114 % of control
T/C (dose: 50.0 mg/kg/injection, schedule: Q#A X014 (sc), vehicle: olive oil, sesame oil, peanut oil): 26 % of control
T/C (dose: 54.0 mg/kg/injection, schedule: Q01DX007 (sc), vehicle: methylcellulose (MC)): 106 % of control
T/C (dose: 80.0 mg/kg/injection, schedule: Q01DX007 (sc), vehicle: methylcellulose (MC)): 77 % of control
T/C (dose: 100.0 mg/kg/injection, schedule: Q#A X014 (oral), vehicle: methylcellulose (MC)): 93 % of control
T/C (dose: 108.0 mg/kg/injection, schedule: Q03DX003 (sc), vehicle: methylcellulose (MC)): 71 % of control
T/C (dose: 120.0 mg/kg/injection, schedule: Q01DX007 (sc), vehicle: methylcellulose (MC)): 101 % of control
T/C (dose: 162.0 mg/kg/injection, schedule: Q03DX003 (sc), vehicle: methylcellulose (MC)): 115 % of control
T/C (dose: 180.0 mg/kg/injection, schedule: Q01DX007 (sc), vehicle: methylcellulose (MC)): 100 % of control
T/C (dose: 200.0 mg/kg/injection, schedule: Q#A X014 (oral), vehicle: methylcellulose (MC)): 95 % of control
T/C (dose: 240.0 mg/kg/injection, schedule: Q03DX003 (sc), vehicle: methylcellulose (MC)): 109 % of control
T/C (dose: 360.0 mg/kg/injection, schedule: Q03DX003 (sc), vehicle: methylcellulose (MC)): 102 % of control
T/C (dose: 540.0 mg/kg/injection, schedule: Q03DX003 (sc), vehicle: methylcellulose (MC)): 152 % of control

CCN(CC)CCOC(=O)c1ccc(N)cc1
T/C (dose: 75.0 mg/kg/injection, schedule: Q#A X014 (ip), vehicle: saline): 92 % of control

CN(C)/N=N/c1nc[nH]c1C(N)=O
T/C (dose: 11.0 mg/kg/injection, schedule: Q01DX007 (ip), vehicle: saline): 58 % of control
T/C (dose: 12.5 mg/kg/injection, schedule: Q#A X014 (ip), vehicle: methylcellulose (MC)): 68 % of control
T/C (dose: 20.0 mg/kg/injection, schedule: Q01DX007 (ip), vehicle: carboxymethylcellulose (CMC)): 89 % of control
T/C (dose: 22.0 mg/kg/injection, schedule: Q01DX007 (ip), vehicle: saline): 62 % of control
T/C (dose: 25.0 mg/kg/injection, schedule: Q#A X014 (ip), vehicle: methylcellulose (MC)): 43 % of control
T/C (dose: 40.0 mg/kg/injection, schedule: Q01DX007 (ip), vehicle: carboxymethylcellulose (CMC)): 62 % of control
T/C (dose: 44.0 mg/kg/injection, schedule: Q01DX007 (ip), vehicle: carboxymethylcellulose (CMC)): 23 % of control and 43 % of control
T/C (dose: 50.0 mg/kg/injection, schedule: Q#A X014 (ip), vehicle: methylcellulose (MC)): 29 % of control
T/C (dose: 66.0 mg/kg/injection, schedule: Q01DX007 (ip), vehicle: carboxymethylcellulose (CMC)): 28 % of control and 53 % of control
T/C (dose: 100.0 mg/kg/injection, schedule: Q01DX007 (ip), vehicle: carboxymethylcellulose (CMC)): 28 % of control and 29 % of control
T/C (dose: 150.0 mg/kg/injection, schedule: Q01DX007 (ip), vehicle: carboxymethylcellulose (CMC)): 19 % of control and 23 % of control
T/C (dose: 160.0 mg/kg/injection, schedule: Q01DX007 (ip), vehicle: carboxymethylcellulose (CMC)): 51 % of control and 73 % of control
T/C (dose: 225.0 mg/kg/injection, schedule: Q01DX007 (ip), vehicle: carboxymethylcellulose (CMC)): 21 % of control
T/C (dose: 320.0 mg/kg/injection, schedule: Q01DX007 (ip), vehicle: carboxymethylcellulose (CMC)): 39 % of control and 45 % of control
T/C (dose: 640.0 mg/kg/injection, schedule: Q01DX007 (ip), vehicle: carboxymethylcellulose (CMC)): 25 % of control

C=CCOc1ccc2c(c1)CC[C@@H]1[C@@H]2CC[C@@]2(C)[C@H]1CC[C@]2(C)O
T/C (dose: 0.5 mg/kg/injection, schedule: Q#A X014 (sc), vehicle: steriod suspending solution): 80 % of control
T/C (dose: 5.0 mg/kg/injection, schedule: Q#A X014 (sc), vehicle: steriod suspending solution): 116 % of control
T/C (dose: 50.0 mg/kg/injection, schedule: Q#A X014 (sc), vehicle: steriod suspending solution): 71 % of control

C/C=C1/CN(C)C2Cc3c([nH]c4ccccc34)C(c3cc4[nH]c5c(c4cc3OC)CCN3CC4CC(C(C)O)C3C5(C(=O)OC)C4)CC1C2C(=O)OC (stereo unspecified)
T/C (dose: 10.0 mg/kg/injection, schedule: Q01DX007 (ip), vehicle: water): 54 % of control
T/C (dose: 20.0 mg/kg/injection, schedule: Q01DX007 (ip), vehicle: water): 97 % of control
T/C (dose: 30.0 mg/kg/injection, schedule: Q01DX007 (ip), vehicle: water): 87 % of control
T/C (dose: 40.0 mg/kg/injection, schedule: Q01DX007 (ip), vehicle: water): 80 % of control

O=C1C=CC(=Nc2ccc3c(c2)C(Br)c2ccccc2-3)O1 (stereo unspecified)
T/C (dose: 16.5 mg/kg/injection, schedule: Q#A X014 (ip), vehicle: saline): 57 % of control and 75 % of control
T/C (dose: 37.5 mg/kg/injection, schedule: Q#A X014 (ip), vehicle: saline): 100 % of control
T/C (dose: 56.25 mg/kg/injection, schedule: Q#A X014 (ip), vehicle: saline): 73 % of control

N#[N+]c1nc[nH]c1C(N)=O
T/C (dose: 0.62 mg/kg/injection, schedule: Q#A X014 (ip), vehicle: methylcellulose (MC)): 61 % of control
T/C (dose: 1.25 mg/kg/injection, schedule: Q#A X014 (ip), vehicle: methylcellulose (MC)): 53 % of control
T/C (dose: 2.5 mg/kg/injection, schedule: Q#A X014 (ip), vehicle: methylcellulose (MC)): 55 % of control

O=c1[nH]cc(F)c(=O)[nH]1
T/C (dose: 3.12 mg/kg/injection, schedule: Q#A X014 (ip), vehicle: carboxymethylcellulose (CMC)): 83 % of control
T/C (dose: 6.25 mg/kg/injection, schedule: Q#A X014 (ip), vehicle: carboxymethylcellulose (CMC)): 100 % of control
T/C (dose: 6.3 mg/kg/injection, schedule: Q#A X014 (ip), vehicle: carboxymethylcellulose (CMC)): 83 % of control
T/C (dose: 9.5 mg/kg/injection, schedule: Q#A X014 (ip), vehicle: carboxymethylcellulose (CMC)): 48 % of control
T/C (dose: 12.5 mg/kg/injection, schedule: Q#A X014 (ip), vehicle: carboxymethylcellulose (CMC)): 90 % of control
T/C (dose: 12.66 mg/kg/injection, schedule: Q#A X014 (ip), vehicle: carboxymethylcellulose (CMC)): 39 % of control
T/C (dose: 15.2 mg/kg/injection, schedule: Q01DX007 (ip), vehicle: carboxymethylcellulose (CMC)): 73 % of control and 89 % of control
T/C (dose: 19.0 mg/kg/injection, schedule: Q#A X014 (ip), vehicle: carboxymethylcellulose (CMC)): 2 % of control
T/C [1]: 25 % of control
T/C (dose: 25.3 mg/kg/injection, schedule: Q01DX007 (ip), vehicle: carboxymethylcellulose (CMC)): 76 % of control
T/C (dose: 25.33 mg/kg/injection, schedule: Q01DX007 (ip), vehicle: carboxymethylcellulose (CMC)): 53 % of control
